Results published in the supplement of paper PMC11451515.

System: SEM cells
Assay: cell viability relative to DMSO control; higher = less cytotoxic
Settings: 48 h
How it was run: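 Leukemia cells (NOMO1 or SEM, 500 cells/well; P12-Ichikawa, 1000 cells/well) were seeded in 5 μl in 1536-well plates after at least four passages of adaptation to each medium. They received library compounds in DMSO by pin dosing, 11 threefold points from 47 μM to 0.79 nM. Luminescence with CellTiter-Glo One was read after 48 h at 37°C. Viability is stated per plate relative to DMSO wells, with cell-free wells as background.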

[1] = HPLM + 10% dialyzed FBS, 0.000781 µM
[2] = HPLM + 10% dialyzed FBS, 0.00234 µM
[3] = HPLM + 10% dialyzed FBS, 0.00702 µM
[4] = HPLM + 10% dialyzed FBS, 0.0211 µM
[5] = HPLM + 10% dialyzed FBS, 0.0632 µM
[6] = HPLM + 10% dialyzed FBS, 0.19 µM
[7] = HPLM + 10% dialyzed FBS, 0.569 µM
[8] = HPLM + 10% dialyzed FBS, 1.71 µM
[9] = HPLM + 10% dialyzed FBS, 5.12 µM
[10] = HPLM + 10% dialyzed FBS, 15.4 µM
[11] = HPLM + 10% dialyzed FBS, 46.1 µM
[12] = RPMI 5 mM glucose + 10% FBS, 0.000781 µM
[13] = RPMI 5 mM glucose + 10% FBS, 0.00234 µM
[14] = RPMI 5 mM glucose + 10% FBS, 0.00702 µM
[15] = RPMI 5 mM glucose + 10% FBS, 0.0211 µM
[16] = RPMI 5 mM glucose + 10% FBS, 0.0632 µM
[17] = RPMI 5 mM glucose + 10% FBS, 0.19 µM
[18] = RPMI 5 mM glucose + 10% FBS, 0.569 µM
[19] = RPMI 5 mM glucose + 10% FBS, 1.71 µM
[20] = RPMI 5 mM glucose + 10% FBS, 5.12 µM
[21] = RPMI 5 mM glucose + 10% FBS, 15.4 µM
[22] = RPMI 5 mM glucose + 10% FBS, 46.1 µM
[23] = RPMI 5 mM glucose + 10% dialyzed FBS, 0.000781 µM
[24] = RPMI 5 mM glucose + 10% dialyzed FBS, 0.00234 µM
[25] = RPMI 5 mM glucose + 10% dialyzed FBS, 0.00702 µM
[26] = RPMI 5 mM glucose + 10% dialyzed FBS, 0.0211 µM
[27] = RPMI 5 mM glucose + 10% dialyzed FBS, 0.0632 µM
[28] = RPMI 5 mM glucose + 10% dialyzed FBS, 0.19 µM
[29] = RPMI 5 mM glucose + 10% dialyzed FBS, 0.569 µM
[30] = RPMI 5 mM glucose + 10% dialyzed FBS, 1.71 µM
[31] = RPMI 5 mM glucose + 10% dialyzed FBS, 5.12 µM
[32] = RPMI 5 mM glucose + 10% dialyzed FBS, 15.4 µM
[33] = RPMI 5 mM glucose + 10% dialyzed FBS, 46.1 µM

Structure (SMILES)	cell viability [1] [%]	cell viability [2] [%]	cell viability [3] [%]	cell viability [4] [%]	cell viability [5] [%]	cell viability [6] [%]	cell viability [7] [%]	cell viability [8] [%]	cell viability [9] [%]	cell viability [10] [%]	cell viability [11] [%]	cell viability [12] [%]	cell viability [13] [%]	cell viability [14] [%]	cell viability [15] [%]	cell viability [16] [%]	cell viability [17] [%]	cell viability [18] [%]	cell viability [19] [%]	cell viability [20] [%]	cell viability [21] [%]	cell viability [22] [%]	cell viability [23] [%]	cell viability [24] [%]	cell viability [25] [%]	cell viability [26] [%]	cell viability [27] [%]	cell viability [28] [%]	cell viability [29] [%]	cell viability [30] [%]	cell viability [31] [%]	cell viability [32] [%]	cell viability [33] [%]
NCC(=O)Nc1ccc(-n2nc(C(F)(F)F)cc2-c2ccc3c(ccc4ccccc43)c2)cc1	109	136	117	121	120	112	129	121	113	99.1	95	87.7	100	112	102	116	114	101	107	98.3	84.8	72.6	119	138	119	124	120	114	128	132	100	51.4	45.1
COc1cc([C@@H]2c3cc4c(cc3[C@@H](O[C@@H]3O[C@@H]5CO[C@@H](c6cccs6)O[C@H]5[C@H](O)[C@H]3O)[C@H]3COC(=O)[C@H]23)OCO4)cc(OC)c1O	94.9	85	89.8	95.1	83.1	85	90.8	16.4	77.9	15.3	4.57	96.7	120	110	103	101	84.7	78.7	14.4	80.1	12.6	5.23	86.7	88.9	79	85.1	79.6	68.6	66.8	9.66	63.4	11	3.6
Oc1cc(O)cc(/C=C/c2ccc(O)c(O)c2)c1	86.5	85.8	89.6	80.1	99.9	92.7	93.3	106	78.1	77.9	44.6	101	102	95	107	101	101	115	92.7	85.3	67.5	14.2	87.9	92.7	78.6	82.6	87.5	89.8	97.6	84.2	82.4	63.4	27.3
CCN(C)C(=O)Oc1cccc([C@H](C)N(C)C)c1	101	108	104	125	110	119	97.4	105	99.2	101	105	121	114	108	111	122	90.1	95.9	95.9	85.7	105	99.5	124	100	111	121	110	109	121	101	111	110	95.6
Cc1ccc(-c2ncn(-c3ccc(Nc4nccc(-c5cccc(N6CCOCC6)c5)n4)cc3)n2)cn1	75.3	93	103	94.5	70.9	65.3	4.95	3.93	3.48	3.55	6.89	90.3	98.9	101	104	75.1	32.3	5.46	4.61	3.18	3.66	5.27	81.6	95.5	90.7	94.4	66.9	48	5.8	4.65	4.48	3.85	5.94
O=C(CCCCCCC(=O)Nc1ccccc1)NO	77.1	112	102	103	124	116	108	108	18.8	7.11	5.17	94.2	116	135	123	111	118	125	127	25	6.63	5.85	62.6	100	106	109	114	106	121	103	16.4	6.03	4.79
C[C@@H]1C[C@H]2[C@@H]3CC\C4=C\C(=O)\C=C/[C@]4(C)[C@@]3(Cl)[C@@H](O)C[C@]2(C)[C@@]1(OC(=O)C5=CC=CO5)C(=O)CCl	28.4	82.2	45.9	53.8	61	59.3	53.2	47.7	36.9	45.6	52	32.3	81.8	35.8	62.1	61	50.4	50.4	45.1	36.9	37.3	50.8	30.9	76.5	39	52.5	64.1	47	46.8	44.7	28.8	43	36.5
